# Tests used:
# [1] = Subcutaneous versus intravenous bioavailability (data not shown); format: in vivo
# Procedure: In some embodiments of any aspect of the invention, the multispecific (e.g. bispecific) antibody is administered intravenously or subcutaneously.
# [2] = test system: SKMM2 BCMA-expressing myeloma cell line; assay: CC-93269-induced redirected lysis of SKMM2; format: cell-based, human; details: E:T 1:1, 72 hours, 3 donors
# Procedure: (§1) Four BCMA-expressing tumour cell lines purchased from ATCC (Manassa, Va.) (Multiple Myeloma cell lines: BCMA high-H-929 (catalog number CRL-9068), BCMA mid-SKMM2 and -MM.1S (catalog number ACC-430) and BCMA low-KMS12-PE (catalog number ACC-606)) were co-cultured with T-cells from 3 independent healthy donors (Bloodworks Northwest, Seattle, Wash.), at a E:T ratio of 1:1, i.e. 1 T cell: 1 myeloma cell. […]; 0.033-2.6 nM) for 72 hours.
# (§2) FIG. 7 illustrates CC-93269-induced redirected lysis of BCMA+ tumour cell lines following co-culture with donor T cells from one healthy donor; results from all 3 independent healthy donors are summarised in Table 19. In 96-well round bottom plates and a final volume of 100 μL, 1×10^4 CellTrace Violet-labeled T-cells were plated with 1×10^4 CellTrace CFSE-labeled target cells, in the presence of varying concentrations of CC-93269 in combination with varying concentrations of dexamethasone (7-point dose response). The cocultures were incubated at 37° C. with 5% CO2. […] One-hundred percent viability was determined by the absolute cell count of live tumour cells at no addition of CC-93269 or dexamethasone; an absolute cell count of 0 live cells was used to define 100% killing of tumour cells. […] The IC50 values were calculated using non-linear regression analysis, sigmoidal dose-response using GraphPad Prism (version 5.0) software.
# [3] = test system: KMS12-PE BCMA-expressing myeloma cell line; assay: CC-93269-induced redirected lysis of KMS12-PE; format: cell-based, human; details: E:T 1:1, 72 hours, 3 donors
# Procedure: as §1, §2
# [4] = test system: Relapsed/Refractory Multiple Myeloma (RRMM) patients; assay: Clinical study of CC-93269 in RRMM: efficacy (IMWG response, MRD); format: in vivo, human
# Procedure: This study involved 19 RRMM patients who had received ≥3 prior regimens without prior BCMA-directed therapy. Prior treatments included autologous stem cell transplantation, allogenic stem cell transplantation, lenalidomide, pomalidomide, bortezomib, carfilzomib, and daratumumab (DARA). All patients had MM refractory to their last line of therapy.
# (§3) CC-93269 (42-TCBcv), a bispecific antibody that specifically binds to BCMA bivalently and CD3 monovalently, was administered intravenously over 2 hours on Days 1, 8, 15, and 22 for Cycles 1-3; Days 1 and 15 for Cycles 4-6; and on Day 1 for Cycle 7 and beyond, all in 28-day cycles. 14 patients received a fixed dose of CC-93269 at each of the intervals: 0.15 mg (Cohort 1, n=1), 0.5 mg (Cohort 2, n=1), 1.5 mg (Cohort 3, n=1), 3 mg (Cohort 4, n=4), 6 mg (Cohort 5, n=3) or 10 mg (Cohort 6, n=4). 5 patients received a starting dose of 6 mg on Cycle 1 Day 1, followed by a dose of 10 mg on Cycle 1 Day 8 and thereafter (Cohort 7, n=5).
# Response was assessed using the International Myeloma Working Group (IMWG) Uniform Response Criteria (Rajkumar, 2011a; Kumar, 2016) at every cycle starting on Cycle 2 Day 1 and at the end of treatment. Minimal residual disease (MRD) was assessed by EuroFlow evaluation and NGS (next-generation sequencing) if evaluable. MRD negativity was reported only if a minimum sensitivity of <1 tumour cell in 10^5 nucleated cells was achieved. […]
# [5] = Clinical study of CC-93269 in RRMM: pharmacokinetics (exposure); format: in vivo, human
# Procedure: as §3
# This phenomenon was not observed at 3 mg doses.
# [6] = test system: H929 BCMA-expressing myeloma cell line; assay: CC-93269-induced redirected lysis of H929; format: cell-based, human; details: E:T 1:1, 72 hours, 3 donors
# Procedure: as §1, §2
# [7] = 12 patients treated with ≥6 mg (Cohort 5 to 7)
# [8] = Patients Treated with <6 mg (n = 7)
# [9] = Patients Treated with up to 10 mg (n = 9)
# [10] = Patients Treated with ≥6 mg (n = 12)
# [11] = Patients treated with up to 3 mg (n = 7)
# [12] = Patients treated with up to 6 mg (n = 14)
# [13] = patients treated with ≥6 mg (Cohort 5 to 7)
substance,measurement,setting,value
"CC-93269: bispecific antibody that specifically binds to BCMA bivalently and CD3 monovalently; SEQ ID NO:48, 55, 56, 57 (2×)",bioavailability of subcutaneous administration,[1],comparable bioavailability to intravenous administration
same,"% live tumour cells, Mean",[2]; 1 μM Dex co-treatment,3.5%
same,"% live tumour cells, Mean",[2]; DMSO,2.68%
same,"% live tumour cells, Mean",[3]; 1 μM Dex co-treatment,5.8%
same,"% live tumour cells, Mean",[3]; DMSO,3.71%
same,responses,"[4]; 4 patients of Cohort 4, consecutive doses of 3 mg",No responses were observed
same,preliminary overall response rate,"[4]; 9 subjects, maintenance dose of 10 mg (Cohorts 6 and 7)",88.9%
same,MRD negativity,[4]; [7],75.0%
same,overall response rate (partial response or better),[4]; [7],83.3%
same,stringent complete response (sCR),[4]; [7],33.3%
same,very good partial response (VGPR) or better,[4]; [7],58.3%
same,Best response: Minimal response (MR),[4]; All Patients (N =19),0 (0) n (%)
same,Best response: Not evaluable,[4]; All Patients (N =19),2 (10.5) n (%)
same,Best response: Partial response (PR),[4]; All Patients (N =19),3 (15.8) n (%)
same,Best response: Progressive disease (PD),[4]; All Patients (N =19),3 (15.8) n (%)
same,Best response: Stringent complete response + complete response (sCR + CR),[4]; All Patients (N =19),4 (21.1) n (%)
same,Best response: Very good partial response (VGPR),[4]; All Patients (N =19),3 (15.8) n (%)
same,VGPR or better,[4]; All Patients (N =19),7 (36.8) n (%)
same,Overall response (PR or better),"[4]; All Patients (N =19), Cohorts 1-7",10 (52.6) n (%)
same,response compared with Cohorts 1 to 4 (maintenance dose ≤3 mg),"[4]; Cohorts 8 and 9, starting dose 3 mg then maintenance dose ≥6 mg",improved response
same,Best response: Minimal response (MR),[4]; [8],0 (0) n (%)
same,Best response: Not evaluable,[4]; [8],1 (14.3) n (%)
same,Best response: Partial response (PR),[4]; [8],0 (0) n (%)
same,Best response: Progressive disease (PD),[4]; [8],2 (28.6) n (%)
same,Best response: Stringent complete response + complete response (sCR + CR),[4]; [8],0 (0) n (%)
same,Best response: Very good partial response (VGPR),[4]; [8],0 (0) n (%)
same,VGPR or better,[4]; [8],0 (0) n (%)
same,Overall response (PR or better),"[4]; Patients Treated with <6 mg (n = 7), Cohorts 1-7",0 (0) n (%)
same,Best response: Minimal response (MR),[4]; [9],0 n (%)
same,Best response: Not evaluable,[4]; [9],1 (11.1) n (%)
same,Best response: Partial response (PR),[4]; [9],1 (11.1) n (%)
same,Best response: Progressive disease (PD),[4]; [9],0 n (%)
same,Best response: Stringent complete response + complete response (sCR + CR),[4]; [9],4 (44.4) n (%)
same,Best response: Very good partial response (VGPR),[4]; [9],3 (33.3) n (%)
same,Overall response (PR or better),"[4]; Patients Treated with up to 10 mg (n = 9), Cohorts 1-9",8 (88.9) n (%)
same,Best response: Minimal response (MR),[4]; [10],0 (0) n (%)
same,Best response: Not evaluable,[4]; [10],1 (8.3) n (%)
same,Best response: Partial response (PR),[4]; [10],3 (25.0) n (%)
same,Best response: Progressive disease (PD),[4]; [10],1 (8.3) n (%)
same,Best response: Stringent complete response + complete response (sCR + CR),[4]; [10],4 (33.3) n (%)
same,Best response: Very good partial response (VGPR),[4]; [10],3 (25.0) n (%)
same,MRD negative,[4]; [10],9 (75.0) n (%)
same,VGPR or better,[4]; [10],7 (58.3) n (%)
same,Overall response (PR or better),"[4]; Patients Treated with ≥6 mg (n = 12), Cohorts 1-7",10 (83.3) n (%)
same,Best response: Minimal response (MR),[4]; [11],0 (0) n (%)
same,Best response: Not evaluable,[4]; [11],1 (14.3) n (%)
same,Best response: Partial response (PR),[4]; [11],0 (0) n (%)
same,Best response: Progressive disease (PD),[4]; [11],2 (28.6) n (%)
same,Best response: Stringent complete response + complete response (sCR + CR),[4]; [11],0 (0) n (%)
same,Best response: Very good partial response (VGPR),[4]; [11],0 (0) n (%)
same,Overall response (PR or better),"[4]; Patients treated with up to 3 mg (n = 7), Cohorts 1-9",0 (0) n (%)
same,Best response: Minimal response (MR),[4]; [12],0 (0) n (%)
same,Best response: Not evaluable,[4]; [12],3 (21.4) n (%)
same,Best response: Partial response (PR),[4]; [12],3 (21.4) n (%)
same,Best response: Progressive disease (PD),[4]; [12],5 (35.7) n (%)
same,Best response: Stringent complete response + complete response (sCR + CR),[4]; [12],1 (7.1) n (%)
same,Best response: Very good partial response (VGPR),[4]; [12],1 (7.1) n (%)
same,Overall response (PR or better),"[4]; Patients treated with up to 6 mg (n = 14), Cohorts 1-9",5 (35.7) n (%)
same,preliminary overall response rate,"[4]; patients treated with up to 6 mg (Cohorts 5, 8, and 9)",35.7%
same,median time to response,[4]; [13],4.2 weeks
same,"time to response, range",[4]; [13],4.0-13.1 weeks
same,large increases in exposure after multiple doses,[5]; 3 mg doses,not observed
same,exposure after multiple doses,[5]; doses ≥6 mg,large increases in exposure
same,"% live tumour cells, Mean",[6]; 1 μM Dex co-treatment,2.11%
same,"% live tumour cells, Mean",[6]; DMSO,1.61%
